For the test, the system named is at least one muscarinic receptor, M1, M2, M3, M4. In words: Muscarinic modulation activity (Table 3). Also on record: key: +++: exhibited muscarinic modulation activity for at least one muscarinic receptor, M1, M2, M3, M4, at a concentration of less than 5 μM; ++: exhibited muscarinic modulation activity for at least one muscarinic receptor, M1, M2, M3, M4, at a concentration of between 30 μM and 5 μM; +: exhibited muscarinic modulation activity for at least one muscarinic receptor, M1, M2, M3, M4, at a concentration of greater than 30 μM; −: were not assayed or did not exhibit muscarinic modulation activity for at least one muscarinic receptor, M1, M2, M3, M4, at the concentration at which the assay was performed. It is filed as cell-based. The following applies: concentration at which modulation of at least one muscarinic receptor, M1, M2, M3, M4, was exhibited; CHO cells. As for the experimental part: CHO cells expressing muscarinic receptors (M1 to M5) are grown as monolayers in tissue culture flasks at 37° C. in a humidified atmosphere containing 5% CO2 and passaged every 3-5 days. The growth media is Dulbecco's modified eagles medium (DMEM, Gibco Cat#12430-054), containing 25 mM Hepes and supplemented with Fetal Bovine Serum (Hyclone, cat#SH30071.03), 0.1 mM of MEM non-essential amino acids (GIBCO, Cat#11140-050), 1 mM MEM Sodium Pyruvate (GIBCO Cat#11360-070) and 100 units/ml of Penicillin G and 100 μg/ml of Streptomycin (GIBCO Cat#15140-122). The recombinant muscarinic receptor cell lines are grown under antibiotic pressure with media containing 25 μg/ml zeocin and 500 μg/ml G418 (M1-CHO), 4 μg/ml puromycin, 50 μg/ml zeocin and 2.5 μg/ml blasticidin (M2 and M4-CHO) or 50 μg/ml zeocin and 4 μg/ml puromycin (M3 and M5-CHO).
Cells are harvested at 80-90% confluence using Versene (GIBCO Cat#15040-066), collected by centrifugation and seeded 18-24 hrs prior to running the calcium assay at a density of 5,000-10,000 cells/well in […], clear-bottomed 384-well plates (BD Biocoat, poly-D-lysine, Cat#356663). The day of the experiment, the cells are washed with a plate washer (Bioteck Instruments, ELX 405) using bath1 buffer (140-mM NaCl, 4.5-mM KCl, 2-mM CaCl2, 1-mM MgCl2, 10-mM Hepes-Na, 10-mM Glucose, pH 7.4, with NaOH) containing 1 mM Probenecid. Next, the calcium dye Fluo-3 (25 μl/well of Fluo-3 AM at 4 μM, Molecular Probes F-1241, in Bath 1 buffer containing 1 mM Probenecid) is added to the 25 μl of Bath 1 remaining in each well after the plate wash and the dye is loaded at 37° C. in the tissue culture incubator for 60-90 min. The fluorescent dye is removed using the plate washer with Bath 1 containing 1 mM Probenecid, leaving 25 μl/well of this solution after the wash. Alternatively, cells can be loaded with the calcium indicator from Molecular Devices (Calcium 3 Assay Reagents, Cat #R7181) adding 5 μl of a 5× solution dye in Bath 1 containing 1 mM Probenecid (10 ml per dye flask cat#R7182 to generate a solution […]) to 20 μl of the same buffer. After loading for 60 min. the experiment can be run without having to remove the dye.
Compounds are prepared at a 2× fold concentration in a 96-well plate (round bottom, Costar Corning cat#3656), by reconstituting the pre-spotted compounds in bath 1 containing 1 mM probenecid. The final concentration DMSO is 0.5%, and the amount of DMSO is normalized across the assay plate. To determine an agonist action of the compounds on muscarinic receptors, the reconstituted compounds are added (25 μl compound/well) to the cell assay plate (containing 25 μl/well) using the multi-channel robotic system of the FLIPR 3 Instrument (Molecular Devices, Sunnyvale, Calif.). To determine a functional inhibitory action of the compounds on muscarinic receptors, the reconstituted compounds are added (25 μl compound/well) to the assay plate and pre-incubated for 15 min prior to adding 25 μl of Carbachol at 3× the EC80 for each muscarinic subtype. Alternatively, the compounds can be co-applied simultaneously with the agonist. In both assay modes, the fluorescence is recorded for 60 sec (excitation wavelength is […] and emission wavelength 540 nm) using the FLIPR 3 instrument.
The potency, efficacy and selectivity of the muscarinic compounds were evaluated by screening the compound activity across the whole family (M1 to M5 cells).
CHO cells expressing muscarinic receptors (M1 to M5) and containing a gene reporter system β-Lactamase) with transcriptional control mediated by calcium release (NFAT activation). See Zlokarnik, G; Negulescu, P. A.; Knapp, T. E.; Mere, L; Burres, N; Feng, L; Whitney, M; Roemer, K; Tsien, R. Y. Quantitation of transcription and clonal selection of single living cells with β-lactamase as reporter. Science, 1998 Jan. 2, 279(5347):84-8. The cells are grown as monolayers in tissue culture flasks at 37° C. in a humidified atmosphere containing 5% CO2 and passaged every 3-5 days. […]

This note sets out measurements from patent US7820817B2, “Modulators of muscarinic receptors” (Vertex Pharmaceuticals Incorporated, priority 2004, dated 2010).

Take `c1cnc(N2CCN(C3CC4CCC3C4)CC2)cn1` (centres unmarked) [Compound 44, 2-(4-norbornan-2-ylpiperazin-1-yl)pyrazine]: the “ACTIVITY (muscarinic modulation activity)” value (“ACTIVITY” below) is “++ (exhibited muscarinic modulation activity for at least one muscarinic receptor, M1, M2, M3, M4, at a concentration of between 30 μM and 5 μM)”.
The same measure for `N#Cc1cccnc1N1CCN(CC2CC3C=CC2C3)CC1` (centres unmarked) [Compound 42, 2-[4-(5-bicyclo[2.2.1]hept-2-enylmethyl)piperazin-1-yl]nicotinonitrile]: “+++ (exhibited muscarinic modulation activity for at least one muscarinic receptor, M1, M2, M3, M4, at a concentration of less than 5 μM)”; for `CCOC(=O)N1C2CCC1CC(N1CCN(c3ncccc3C#N)CC1)C2` (centres unmarked) [Compound 12, 3-[4-(3-cyano-2-pyridyl)piperazin-1-yl]-8-azabicyclo[3.2.1]octane-8-carboxylic acid ethyl ester]: “+++ (exhibited muscarinic modulation activity for at least one muscarinic receptor, M1, M2, M3, M4, at a concentration of less than 5 μM)”.
Turning to `c1ccc2c(c1)nnn2C1CCN(C2CC3CCC2C3)CC1` (centres unmarked) [Compound 50, 1-(1-norbornan-2-yl-4-piperidyl)-1H-benzotriazole], the “ACTIVITY” value was “++ (exhibited muscarinic modulation activity for at least one muscarinic receptor, M1, M2, M3, M4, at a concentration of between 30 μM and 5 μM)”.
The same measure for `CCOC(=O)N1C2CCC1CC(N1CCN(c3ccc(C(C)=O)cn3)CC1)C2` (centres unmarked) [Compound 51, 3-[4-(5-acetyl-2-pyridyl)piperazin-1-yl]-8-azabicyclo[3.2.1]octane-8-carboxylic acid ethyl ester]: “+++ (exhibited muscarinic modulation activity for at least one muscarinic receptor, M1, M2, M3, M4, at a concentration of less than 5 μM)”.
Regarding `CCOC(=O)N1C2CCC1CC(N1CCN(c3ncccc3F)CC1)C2` (centres unmarked) [Compound 30, 3-[4-(3-fluoro-2-pyridyl)piperazin-1-yl]-8-azabicyclo[3.2.1]octane-8-carboxylic acid ethyl ester], the “ACTIVITY” value is on record as “+++ (exhibited muscarinic modulation activity for at least one muscarinic receptor, M1, M2, M3, M4, at a concentration of less than 5 μM)”.
The result for `N#Cc1cc(-c2ccccc2)cnc1N1CCN(CC2CC3CCC2C3)CC1` (centres unmarked) [Compound 46, 2-[4-(norbornan-2-ylmethyl)piperazin-1-yl]-5-phenyl-nicotinonitrile] reads “++ (exhibited muscarinic modulation activity for at least one muscarinic receptor, M1, M2, M3, M4, at a concentration of between 30 μM and 5 μM)”.
The same measure for `Cc1nccnc1N1CCN(CC2CC3C=CC2C3)CC1` (centres unmarked) [Compound 17, 2-[4-(5-bicyclo[2.2.1]hept-2-enylmethyl)piperazin-1-yl]-3-methyl-pyrazine]: “+++ (exhibited muscarinic modulation activity for at least one muscarinic receptor, M1, M2, M3, M4, at a concentration of less than 5 μM)”; for `c1cc(N2CCN(C3CCC4CCC3C4)CC2)ccn1` (centres unmarked) [Compound 61, 1-(2-bicyclo[3.2.1]octyl)-4-(4-pyridyl)piperazine]: “−”.
As for `CCOC(=O)N1C2CCC1CC(N1CCN(c3ccncc3)CC1)C2` (centres unmarked) [Compound 25, 3-[4-(4-pyridyl)piperazin-1-yl]-8-azabicyclo[3.2.1]octane-8-carboxylic acid ethyl ester], the “ACTIVITY” value is recorded as “+++ (exhibited muscarinic modulation activity for at least one muscarinic receptor, M1, M2, M3, M4, at a concentration of less than 5 μM)”.
The result for `Clc1cccnc1N1CCN(CC2CC3C=CC2C3)CC1` (centres unmarked) [Compound 52, 1-(5-bicyclo[2.2.1]hept-2-enylmethyl)-4-(3-chloro-2-pyridyl)-piperazine] reads “++ (exhibited muscarinic modulation activity for at least one muscarinic receptor, M1, M2, M3, M4, at a concentration of between 30 μM and 5 μM)”.
The same measure for `Cc1cccnc1N1CCN(CC2CC3C=CC2C3)CC1` (centres unmarked) [Compound 20, 2-[4-(5-bicyclo[2.2.1]hept-2-enylmethyl)piperazin-1-yl]-3-methyl-pyridine]: “+++ (exhibited muscarinic modulation activity for at least one muscarinic receptor, M1, M2, M3, M4, at a concentration of less than 5 μM)”.
The same measure for `N#Cc1cccnc1C1CCN(CC2CC3C=CC2C3)CC1` (centres unmarked) [Compound 54, 2-[1-(5-bicyclo[2.2.1]hept-2-enylmethyl)-4-piperidyl]nicotinonitrile]: “+++ (exhibited muscarinic modulation activity for at least one muscarinic receptor, M1, M2, M3, M4, at a concentration of less than 5 μM)”.
As to “3-[4-(3-cyanopyrazin-2-yl)piperazin-1-yl]-8-azabicyclo[3.2.1]octane-8-carboxylic acid ethyl ester [Compound 45]”, the “ACTIVITY” value is on record as “+ (exhibited muscarinic modulation activity for at least one muscarinic receptor, M1, M2, M3, M4, at a concentration of greater than 30 μM)”.
`CCOC(=O)N1C2CCC1CC(CN1CCN(c3ncccc3C#N)CC1)C2` (centres unmarked) [Compound 68, 3-[[4-(3-cyano-2-pyridyl)piperazin-1-yl]methyl]-8-azabicyclo[3.2.1]octane-8-carboxylic acid ethyl ester]: the “ACTIVITY” value was “+++ (exhibited muscarinic modulation activity for at least one muscarinic receptor, M1, M2, M3, M4, at a concentration of less than 5 μM)”.
The same measure for `Cc1cnc(C)c(N2CCN(C3CC4CCC3C4)CC2)n1` (centres unmarked) [Compound 40, 2,5-dimethyl-3-(4-norbornan-2-ylpiperazin-1-yl)-pyrazine]: “−”.
The result for `Cc1ccc(C#N)c(N2CCN(CC3CC4C=CC3C4)CC2)n1` (centres unmarked) [Compound 62, 2-[4-(5-bicyclo[2.2.1]hept-2-enylmethyl)piperazin-1-yl]-6-methyl-nicotinonitrile] reads “+++ (exhibited muscarinic modulation activity for at least one muscarinic receptor, M1, M2, M3, M4, at a concentration of less than 5 μM)”.
`CCOC(=O)N1C2CCC1CC(N1CCN(c3ncc(-c4ccccc4)cc3C#N)CC1)C2` (centres unmarked) [Compound 33, 3-[4-(3-cyano-5-phenyl-2-pyridyl)piperazin-1-yl]-8-azabicyclo[3.2.1]octane-8-carboxylic acid ethyl ester]: the “ACTIVITY” value was “+ (exhibited muscarinic modulation activity for at least one muscarinic receptor, M1, M2, M3, M4, at a concentration of greater than 30 μM)”.
The result for `c1cnc(N2CCN(C3CC4CCC3C4)CC2)nc1` (centres unmarked) [Compound 71, 2-(4-norbornan-2-ylpiperazin-1-yl)pyrimidine] reads “++ (exhibited muscarinic modulation activity for at least one muscarinic receptor, M1, M2, M3, M4, at a concentration of between 30 μM and 5 μM)”; that for `CCc1cnc(N2CCN(CC3CC4CCC3C4)CC2)nc1` (centres unmarked) [Compound 22, 5-ethyl-2-[4-(norbornan-2-ylmethyl)piperazin-1-yl]-pyrimidine], “−”.
